From patent US9371363B2, “Peptides and their use” (Novabiotics Limited, priority 2007, dated 2016)
Read-outs that look alike come from different tables or passages of the source. Where no end group is shown, it is not given here.

Tests used:
Type in all cases: cell-based
E. coli = tested on: E. coli
Procedure: (§1) Broth Dilution Antibacterial Susceptibility Testing
(§2) The sensitivity of relevant bacterial strains to the peptides (was determined using Clinical Laboratory Standard Institute (CLSI; formerly NCCLS) Approved Standards. Bacterial susceptibility was tested using “Methods for Dilution Antimicrobial Susceptibility Tests for Bacteria That Grow […]; Approved Standard—Seventh Edition M7-A7”

S. aureus = tested on: S. aureus
Procedure: as §1, §2

P. acnes = conditions: P. acnes; values marked * in mg/ml
Procedure: as §1, §2

Ps. aeruginosa = conditions: Ps. aeruginosa; values marked * in mg/ml
Procedure: as §1, §2

Str. pyogenes = tested on: Str. pyogenes
Procedure: as §1, §2

Compound | Minimum Inhibitory Concentration, antimicrobial activity, E. coli (E. coli) [mM] | Minimum Inhibitory Concentration, antimicrobial activity, S. aureus (S. aureus) [mM] | Minimum Inhibitory Concentration, antimicrobial activity, S. aureus (S. aureus; S. aureus, values marked * in mg/ml) | Minimum Inhibitory Concentration, antimicrobial activity, P. acnes (P. acnes) | Minimum Inhibitory Concentration, antimicrobial activity, Ps. aeruginosa (Ps. aeruginosa) | Minimum Inhibitory Concentration, antimicrobial activity, Str. pyogenes (Str. pyogenes) [mM]
N=C(N)NCCC[C@H](NC(=O)[C@H](CCCNC(=N)N)NC(=O)[C@H](CCCNC(=N)N)NC(=O)[C@H](CCCNC(=N)N)NC(=O)[C@H](CCCNC(=N)N)NC(=O)[C@H](CCCNC(=N)N)NC(=O)[C@@H](N)CCCNC(=N)N)C(=O)O [NP105, RRRRRRR (SEQ ID NO: 23)] | >2 | >2 |  |  |  | 
(R)n, n = 28-86 [NP121] |  |  | 0.0313* mg/ml | 0.01* mg/ml | 0.0625* mg/ml | 
KKKKKKK [NP104, KKKKKKK (SEQ ID NO: 35)] | >2 | >2 |  |  |  | 1
